From the NIST ThermoML archive (doi:10.1021/je0340755)
Numbers after ± are expanded uncertainties.

Assay: xn = mol fraction of the nth substance listed
Settings: 101.3 kPa, Liquid; for viscosity: Capillary tube (Ostwald / Ubbelohde) method

CC(O)CO (configuration not stated) [1,2-propanediol] + O
Settings	mass density, 298.15 K [kg/m3]	speed of sound, 298.15 K [m/s]	viscosity, 298.15 K [mPa·s]	viscosity, 308.15 K [mPa·s]
x2 = 0.044	1033.39 ± 0.43	1511.4 ± 6.3	41.25 ± 0.2	23.03 ± 0.12
x2 = 0.0987	1034.15 ± 0.43	1518.3 ± 6.3	38.41 ± 0.18	21.43 ± 0.12
x2 = 0.1484	1034.84 ± 0.42	1523 ± 6.3	35.74 ± 0.17	19.93 ± 0.11
x2 = 0.2498	1036.3 ± 0.42	1531.6 ± 6.3	30.2 ± 0.14	16.8 ± 0.098
x2 = 0.3494	1037.8 ± 0.41	1551.3 ± 6.4	24.83 ± 0.12	13.77 ± 0.088
x2 = 0.4494	1039.24 ± 0.41	1581.6 ± 6.5	19.71 ± 0.11	10.9 ± 0.08
x2 = 0.5029	1039.87 ± 0.4	1602.9 ± 6.5	17.14 ± 0.096	9.465 ± 0.077
x2 = 0.5499	1040.27 ± 0.4	1622.2 ± 6.6	15 ± 0.09	8.274 ± 0.075
x2 = 0.5597	1040.33 ± 0.4	1626.9 ± 6.6	14.56 ± 0.089	8.034 ± 0.074
x2 = 0.6501	1040.2 ± 0.39	1660.5 ± 6.7	10.84 ± 0.079	5.979 ± 0.07
x2 = 0.7499	1037.73 ± 0.38	1687.6 ± 6.8	7.287 ± 0.072	4.049 ± 0.066
x2 = 0.85	1030.31 ± 0.35	1676.8 ± 6.7	4.325 ± 0.067	2.473 ± 0.064
x2 = 0.9003	1023.26 ± 0.33	1642.7 ± 6.6	3.049 ± 0.065	1.81 ± 0.064
x2 = 0.9115	1021.26 ± 0.32	1632.5 ± 6.6	2.782 ± 0.065	1.673 ± 0.064
x2 = 0.9154	1020.51 ± 0.32	1627.5 ± 6.6	2.692 ± 0.065	1.626 ± 0.064
x2 = 0.927	1018.16 ± 0.31	1614.3 ± 6.6	2.425 ± 0.064	1.491 ± 0.064
x2 = 0.9367	1016.02 ± 0.31	1602.1 ± 6.5	2.208 ± 0.064	1.379 ± 0.063
x2 = 0.9504	1012.69 ± 0.3	1582.9 ± 6.5	1.907 ± 0.064	–
x2 = 0.9551	1011.46 ± 0.29	1577.5 ± 6.4	1.806 ± 0.064	–
x2 = 0.96	1010.13 ± 0.29	1570.2 ± 6.4	1.701 ± 0.064	–
x2 = 0.9696	1007.36 ± 0.28	1554.1 ± 6.4	1.501 ± 0.064	–
x2 = 0.9797	1004.21 ± 0.27	1535.9 ± 6.3	1.294 ± 0.063	–
x2 = 0.9902	1000.65 ± 0.26	1518 ± 6.3	1.083 ± 0.063	–
x2 = 0.9923	999.9 ± 0.26	1513.6 ± 6.2	1.041 ± 0.063	–
x2 = 0.9948	998.99 ± 0.26	1508.4 ± 6.2	0.992 ± 0.063	–
